Tests used:
Parameters in all cases: The final concentrations were 0.73 μM native pentameric CRP; from tissue
CRP [1] = target: T1, CRP (Homo sapiens, UniProt P02741); assay: Size exclusion chromatography of CRP/ligand cross linking; type: binding; conditions: CRP/ligand complex re-chromatographed in absence of free ligand
T1 sequence (P02741 19-224): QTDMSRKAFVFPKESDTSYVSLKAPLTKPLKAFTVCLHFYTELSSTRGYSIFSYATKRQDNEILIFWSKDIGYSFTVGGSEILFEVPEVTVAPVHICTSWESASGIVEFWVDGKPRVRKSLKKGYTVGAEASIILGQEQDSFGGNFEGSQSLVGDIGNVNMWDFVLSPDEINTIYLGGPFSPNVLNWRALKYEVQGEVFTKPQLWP
Protocol: (i) Ligands were diluted to 0.5 mM in TC buffer from up to 10 mM stocks. Serial dilutions were prepared as required. […]
(iii) The complex was chromatographed on a Superdex200 column (10/300 GL; 24 ml bed volume), connected to the ÅKTA100 Explorer HPLC system, and equilibrated and eluted in TC buffer at 0.5 ml/min. Eluates were monitored at 280 nm and fractions (0.5 ml) collected as required.
Size exclusion chromatography on a Superdex 200 column equilibrated and eluted with TC buffer pH 8.0, and calibrated with standard globular marker proteins and with human CRP, the native CRP pentamer (Mr 115 kDa) eluted at 13.9 ml (range 13.7-14.0 ml, n=10).

CRP [2] = target: T1, CRP; assay: Roche immunoturbidimetric assay: pure CRP; type: binding; conditions: pure CRP in TC buffer; read-out: IC50 (μM), SD; inhibition of Roche CRP immunoreactivity
Protocol: (i) Human CRP at ˜90 μg/ml (3.9 μM monomer or 0.78 μM pentamer) in TC buffer was prepared from a stock solution; a 75 μl aliquot was used in the assay.
(ii) Compounds were prepared from stock solutions at up to 10 mM in TC (labelled S1). They were serially diluted with TC buffer (100 μl ligand+200 μl TC) to provide up to 9 dilutions, S2-S10. A TC buffer control (S0) was included in each assay.
(iii) A 15 μl volume of each ligand solution was incubated with 75 μl of CRP for 1 h at 37° C. The final concentrations were CRP pentamer=0.73 μM, ligands S1-S10=625-0.03 μM, corresponding to ligand:CRP pentamer ratios of 853-0.04.
(iv) CRP concentrations were measured by the Roche microparticle-enhanced immunoturbidimetric assay (10) on the COBAS MIRA autoanalyser, and results expressed as a percentage of the CRP control.
(v) Data were plotted using Sigmaplot (V14) using the 4 parameter logistic curve y=min+(max−min)/(1+(x/EC50)^−Hill slope) to calculate EC50.
(vii) All compounds were assayed in comparison with a highly purified preparation of BPC8, that was prepared by Carbogen AMCIS AG, dissolved in sterile water and diluted into TC buffer as required.
The immunoturbidimetric CRP assay on the Roche COBAS MIRA Plus autoanalyser, utilises two different sized microparticles that are covalently coupled with two different monoclonal antibodies, which recognise different CRP epitopes. The assay was developed by Roche for clinical measurement of CRP serum and plasma with high sensitivity and a very wide dynamic range. Serendipitously, one of the two antibodies binds to an epitope present on the ligand binding B-face of CRP. Thus, when the binding pocket is occupied by ligand and, especially, when the B-face is occluded by the B-face to B-face interaction of two native CRP pentamers produced by cross linking via our unique bivalent ligands, the assay fails to detect the CRP. In contrast, the CRP is all detected and assayed normally by other assays that disrupt the crosslinking and/or use antibodies which recognise different, non-occluded, epitopes. Inhibition of CRP recognition in the Roche assay is thus a convenient tool to monitor the efficacy and potency of complex formation between our unique ligands and CRP.

CRP [3] = target: T1, CRP; assay: Immobilised phosphocholine plate assay (125I-CRP binding); conditions: read-out: IC50 for inhibition of 125I-CRP binding to immobilised phosphocholine
Protocol: (i) Phosphocholine was immobilised on Greiner NHS-activated microtitre plates by incubation with 4-aminophenyl-1-phosphocholine. Remaining active sites were blocked by incubation with 4% w/v BSA in TC buffer (TCB).
(ii) Human CRP at 1 μg/ml in TC buffer was spiked with ^125I-labelled CRP to provide 10^6 cpm/ml.
(iii) Compounds were prepared from up to 10 mM stock solutions by dilution in TC buffer to 0.5 mM (labelled S1). Serial dilutions were prepared by diluting 100 μl ligand solution with 200 μl TC buffer (S2-S10). A ligand-free control was also used (SO, TC only).
(iv) A 100 μl volume of CRP solution was incubated with 10 μl of each compound (S1-S10, SO) for 1 h at room temperature without stirring, to provide final ligand concentrations across the range 45.5 μM-6.9 nM with a ligand:CRP monomer molar ratio of 1151-0.06. In some cases, single fixed ligand concentrations were also assayed in comparison with PC.
(v) A 100 μl volume of each CRP-ligand mixture was added to the plate wells and incubated for 2 h at room temperature. Solutions were then discarded and the plates washed with TCB buffer. Bound radioactivity was measured (1 min counts) using a gamma counter (Perkin Elmer Wizard 2470).
(vi) Data were plotted with Sigmaplot v14 software using the 4-parameter logistic curve y=min+(max−min)/(1+(x/EC50)^−Hill slope) to calculate IC50.

O=C(CC(c1ccccc1)C(CC(=O)NC(C(=O)O)[C@H]1CN2CCC1CC2)c1ccccc1)NC(C(=O)O)[C@H]1CN2CCC1CC2 (single isomer, unassigned) [P2B-D peak1]
Stable to rechromatography (CRP [1]): Yes
IC50 (CRP [2]): 0.66 µM

O=C(NC(C(=O)O)[C@H]1CN2CCC1CC2)C(=O)NC(C(=O)O)[C@H]1CN2CCC1CC2 (stereo partly drawn) [Compound P1d-0, 2-[(3R)-1-azabicyclo[2.2.2]octan-3-yl]-2-[({[(3R)-1-azabicyclo[2.2.2]octan-3-yl](carboxy)methyl}carbamoyl)formamido]acetic acid]
IC50 (CRP [2]): 0.97 µM

O=C(CC(=O)NC(C(=O)O)[C@H]1CN2CCC1CC2)NC(C(=O)O)[C@H]1CN2CCC1CC2 (stereo partly drawn) [Compound P1d-1, 2-[(3R)-1-azabicyclo[2.2.2]octan-3-yl]-2-(2-{[[(3R)-1-azabicyclo[2.2.2]octan-3-yl](carboxy)methyl]carbamoyl}acetamido)acetic acid]
IC50 (CRP [2]): > 400 µM

O=C(CCC(=O)NC(C(=O)O)[C@H]1CN2CCC1CC2)NC(C(=O)O)[C@H]1CN2CCC1CC2 (stereo partly drawn) [Compound P1d-2, 2-[(3R)-1-azabicyclo[2.2.2]octan-3-yl]-2-[3-({[(3R)-1-azabicyclo[2.2.2]octan-3-yl](carboxy)methyl}carbamoyl)propanamido]acetic acid]
Stable to rechromatography (CRP [1]): Yes
IC50 (CRP [2]): < 2 µM

O=C(CCCC(=O)NC(C(=O)O)[C@H]1CN2CCC1CC2)NC(C(=O)O)[C@H]1CN2CCC1CC2 (stereo partly drawn) [Compound P1d-3, 2-[(3R)-1-azabicyclo[2.2.2]octan-3-yl]-2-(4-{[[(3R)-1-azabicyclo[2.2.2]octan-3-yl](carboxy)methyl]carbamoyl}butanamido)acetic acid]
IC50 (CRP [2]): > 400 µM

O=C(CCCCC(=O)NC(C(=O)O)C1CN2CCC1CC2)NC(C(=O)O)C1CN2CCC1CC2 [Compound P1d-4, 2-[(3R)-1-azabicyclo[2.2.2]octan-3-yl]-2-(8-{[[(3R)-1-azabicyclo[2.2.2]octan-3-yl](carboxy)methyl]carbamoyl}pentamido)acetic acid]
Stable to rechromatography (CRP [1]): Partial
IC50 (CRP [2]): < 2 µM

C[N+]12CCC(CC1)[C@@H](C(NC(=O)CCCCC(=O)NC(C(=O)O)[C@H]1C[N+]3(C)CCC1CC3)C(=O)O)C2 (stereo partly drawn) [Compound P1d-4A, (3R)-3-{carboxy[5-({carboxy[(3R)-1-methyl-1-azabicyclo[2.2.2]octan-1-ium-3-yl]methyl}carbamoyl)pentanamido]methyl}-1-methyl-1-azabicyclo[2.2.2]octan-1-ium]
IC50 (CRP [2]): 1.43 µM

O=C(CCCCCC(=O)NC(C(=O)O)[C@H]1CN2CCC1CC2)NC(C(=O)O)[C@H]1CN2CCC1CC2 (stereo partly drawn) [Compound P1d-5, 2-[(3R)-1-azabicyclo[2.2.2]octan-3-yl]-2-(6-{[[(3R)-1-azabicyclo[2.2.2]octan-3-yl](carboxy)methyl]carbamoyl}hexanamido)acetic acid]
IC50 (CRP [2]): > 400 µM

O=C(CCCCCCC(=O)NC(C(=O)O)[C@H]1CN2CCC1CC2)NC(C(=O)O)[C@H]1CN2CCC1CC2 (stereo partly drawn) [Compound P1d-6, 2-[(3R)-1-azabicyclo[2.2.2]octan-3-yl]-2-[7-({[(3R)-1-azabicyclo[2.2.2]octan-3-yl](carboxy)methyl}carbamoyl)heptanamido]acetic acid]
IC50 (CRP [2]): 9.92 µM

O=C(CCCCCCCC(=O)NC(C(=O)O)[C@H]1CN2CCC1CC2)NC(C(=O)O)[C@H]1CN2CCC1CC2 (stereo partly drawn) [Compound P1d-7, 2-[(3R)-1-azabicyclo[2.2.2]octan-3-yl]-2-(8-{[[(3R)-1-azabicyclo[2.2.2]octan-3-yl](carboxy)methyl]carbamoyl}octanamido)acetic acid]
IC50 (CRP [2]): > 400 µM

O=C(Cc1ccc(CC(=O)NC(C(=O)O)[C@H]2CN3CCC2CC3)cc1)NC(C(=O)O)[C@H]1CN2CCC1CC2 (stereo partly drawn) [Compound P2B-C, 2-[[2-[4-[2-[[carboxy-[(3R)-quinuclidin-3-yl]methyl]amino]-2-oxo-ethyl]phenyl]acetyl]amino]-2-[(3R)-quinuclidin-3-yl]acetic acid]
IC50 (CRP [2]): 2.69 µM

O=C(NC(C(=O)O)[C@H]1CN2CCC1CC2)NC(C(=O)O)[C@H]1CN2CCC1CC2 (stereo partly drawn) [Compound P2B-G, 2-[[-carboxy-[(3R)-quinuclidin-3-yl]methyl]carbamoylamino]-2-[(3R)-quinuclidin-3-yl]acetic acid]
IC50 (CRP [2]): 26.2 µM

CN(C)CCOP(=O)(O)OCCCCCCCCOP(=O)(O)OCCN(C)C [Dm-BPC8, bis(2-(dimethylamino)ethyl) octane-1,8-diyl bis(hydrogen phosphate), reference compound]
IC50 (CRP [2]): 127 µM

O=P(O)(OCCCCCCOP(=O)(O)O[C@@H]1CN2CCC1CC2)O[C@@H]1CN2CCC1CC2 [Pk-025, Hexane-1,6-diyl di(S)-quinuclidin-3-yl) bis(hydrogen phosphate]
IC50 (CRP [3]): 280 nM
IC50 (CRP [2]): 1.08 µM

O=P(O)(OCCCCCCCOP(=O)(O)OC1CN2CCC1CC2)OC1CN2CCC1CC2 [Pk-026, Heptane-1,7-diyl di(S)-quinuclidin-3-yl) bis(hydrogen phosphate]
IC50 (CRP [3]): 180 nM

O=P(O)(OCCCCCCCCCCOP(=O)(O)O[C@@H]1CN2CCC1CC2)O[C@@H]1CN2CCC1CC2 [Pk-027, Decane-1,10-diyl di(S)-quinuclidin-3-yl) bis(hydrogen phosphate]
IC50 (CRP [3]): 180 nM

O=P(O)(OCCCCCCCCCOP(=O)(O)O[C@@H]1CN2CCC1CC2)O[C@@H]1CN2CCC1CC2 [Pk-028, Nonane-1,9-diyl di(S)-quinuclidin-3-yl) bis(hydrogen phosphate]
IC50 (CRP [3]): 160 nM

CC(C)(C/C=C/CC(C)(C)COP(=O)(O)O[C@@H]1CN2CCC1CC2)COP(=O)(O)O[C@@H]1CN2CCC1CC2 [Pk-032, di((S)-1-azabicyclo[2.2.2]octan-3-yl) (E)-2,2,7,7-tetramethyloct-4-ene-1,8-diyl bis(hydrogen phosphate)]
IC50 (CRP [2]): 0.72 µM

CC(C)(CCCCC(C)(C)COP(=O)(O)O[C@@H]1CN2CCC1CC2)COP(=O)(O)O[C@@H]1CN2CCC1CC2 [Pk-033, [(3S)-1-azabicyclo[2.2.2]octan-3-yloxy]({[8-({[(3S)-1-azabicyclo[2.2.2]octan-3-yloxy](hydroxy)phosphoryl}oxy)-2,2,7,7-tetramethyloctyl]oxy})phosphinic acid]
IC50 (CRP [2]): 0.59 µM

From patent US20230118142A1, “AGENTS FOR USE IN THE TREATMENT OF TISSUE DAMAGE” (UCL BUSINESS LTD, priority 2020, published 2023)
